Results from patent publication US7858348B2, “N-acetyl-(R,S)-beta-amino acid acylase gene” (Ajinomoto Co., Inc., priority 2006, dated 2010).

How the values were obtained:
Type in all cases: biochemical
[1] = test system: N-acetyl-(R)-β-amino acid acylase derived from Variovorax sp. AJ110348 (JM109/pSFN_1VR cell-free extract); assay: Substrate specificity and optical selectivity with cell-free extract of JM109/pSFN_1VR; conditions: for Concentration of acetic acid detected: JM109/pSFN_1VR 50 mU cell-free extract, 37° C.; for optical selectivity of β-amino acid produced (ee): after reacting for 24 hours; for optical selectivity of β-amino acid produced (ee) / β-amino acid enantiomer detected in the reaction solution: chiral HPLC; for β-amino acid enantiomer detected in the reaction solution: 24 hours (10 minutes for the 3,4-(—O—CH2—O—) substrate)
Protocol: (§1) An Astec Chirobiotec T (0.46 cm in diameter, 25 cm) column was employed. A 90 percent MeOH mobile phase was employed. The temperature was 40° C. and the flow rate was 0.4 mL/minute. Optical selectivity was determined based on comparison with various standard (R) and (S) standard products under UV detection conditions of 205 nm.
(§2) The column employed was comprised of an Inertsil ODS3 (0.46 cm in diameter, 5 cm) made by GL Science and a Chiralpak WH (0.46 cm in diameter, 25 cm) made by Daisel Chemical Industries, arranged consecutively in that order. The mobile phase was 1 mM CuSO4, 10 percent MeOH. The temperature was 50° C. and the flow rate was 1.0 mL/minute. Detection was conducted with a UV detector at 210 nm and optical selectivity was determined by comparison with standard (R) and (S) products.
(§3) JM109/ptrp4—3BR, JM109/pSFN—2BS, and JM109/pSFN—1VR were precultured for 16 hours at 37° C. in LB medium containing 100 mg/L of ampicillin. 1 mL quantity of the cultured bacterial cells was transplanted to 50 mL of TB medium containing 100 mg/L of ampicillin and cultured for 16 hours at 30° C. The bacterial cells obtained were centrifugally separated to concentrate the bacteria cells. The bacterial cells were washed with 50 mM Tris buffer solution (pH 7.6) and the same buffer solution was used to prepare a bacterial cell suspension. Ultrasonic rupturing was employed to rupture the bacterial cells. A supernatant solution obtained by centrifugal separation (15,000 g, 10 minutes, 4° C.) was employed as a cell-free extract, and substrate specificity for the various N-acetyl-(R,S)-β-amino acids described above in Embodiments 2-1 to 9 was examined.
(§4) After adjusting the enzymes by the above methods, their activity was measured. Activity producing 1 μmol of β-Phe per minute from N-acetyl-(R,S)-β-Phe was denoted as 1 U. In the various examination of substrate specificity, 50 mU cell-free extracts were employed. As a negative control, instead of the cell-free medium prepared as set forth above, a 50 mM Tris buffer solution (pH 7.6) that had been reacted with each of the substrates was employed as an “Enzyme-” test zone, and instead of the individual substrates, 50 mM Tris buffer solution (pH 7.6) that had been reacted with each of the cell-free extracts was employed as a “Substrate-” test zone.
(§5) 50 mM Tris-HCl (pH 7.6) and 0.2 percent of various N-acetyl-(R,S)-β-amino acids were reacted at 37° C. for 1 hour or 24 hours, and then processed for 10 minutes at 96° C. to stop the reactions. The quantity of acetic acid produced by the decomposition of acetyl groups was determined by the protocol of an acetic acid kit (Roche).
(§6) After reacting for 24 hours, the samples were analyzed with various chiral resolution columns to determine optical selectivity.
(§7) A 300 μL quantity of culture solution was washed with 50 mM Tris-HCl (pH 7.6), suspended in 300 μL of 50 mM Tris-HCl (pH 7.6), and subjected to ultrasonic rupturing to rupture the bacteria. A supernatant solution obtained by centrifugal separation (15,000 g, 10 minutes, 4° C.) was employed as cell-free extract in the reaction.
(§8) 50 mM Tris-HCl (pH 7.6) and 0.2 percent N-acetyl-(R,S)-3,4-(—O—CH2—O—)-β-phenylalanine were reacted for 10 minutes at 37° C. When 3,4-(—O—CH2—O—)-β-phenylalanine was quantized under the separation conditions of N-acetyl-β-Phe and β-Phe, the activity per mL of cell-free extract was 0.2 U for JM109/ptrp4—3BR, 3.9 U for JM109/pSFN—2BS, and 27.8 U for JM109/pSFN—1VR.
(§9) Various enzymes were prepared from the same bacterial cells and by the same methods as in 12-1, and 50 mU cell-free extracts were employed in the reaction. 50 mM Tris-HCl (pH 7.6) and 1 percent N-acetyl-(R,S)-β-3-Pyr-Ala were reacted for 1 hour at 37° C., after which the reaction was stopped by treatment at 70° C. for 10 minutes. The quantity of acetic acid generated by the decomposition of acetyl groups was determined by the protocol of an acetic acid kit (Roche).

[2] = test system: N-acetyl-(S)-β-amino acid acylase derived from Burkholderia sp. AJ110349 (JM109/pSFN_2BS cell-free extract); assay: Substrate specificity and optical selectivity with cell-free extract of JM109/pSFN_2BS; conditions: for optical selectivity of β-amino acid produced (ee) / β-amino acid enantiomer detected in the reaction solution: JM109/pSFN-2BS, chiral HPLC; for optical selectivity of β-amino acid produced (ee): after reacting for 24 hours; for β-amino acid enantiomer detected in the reaction solution: 24 hours (10 minutes for the 3,4-(—O—CH2—O—) substrate); for Concentration of acetic acid detected: JM109/pSFN_2BS 50 mU cell-free extract, 37° C.
Protocol: as §1, §2, §3, §4, §5, §6, §7, §8, §9

[3] = test system: N-acetyl-(R)-β-amino acid acylase derived from Burkholderia sp. AJ110349 (JM109/ptrp4_3BR cell-free extract); assay: Substrate specificity and optical selectivity with cell-free extract of JM109/ptrp4_3BR; conditions: for Concentration of acetic acid detected: JM109/ptrp4_3BR 50 mU cell-free extract, 37° C.; for optical selectivity of β-amino acid produced (ee): after reacting for 24 hours; for optical selectivity of β-amino acid produced (ee) / β-amino acid enantiomer detected in the reaction solution: chiral HPLC; for β-amino acid enantiomer detected in the reaction solution: 24 hours (10 minutes for the 3,4-(—O—CH2—O—) substrate)
Protocol: as §1, §2, §3, §4, §5, §6, §7, §8, §9

[4] = 0.2 percent substrate, 24 hours

SMILES	Concentration of acetic acid detected ([1]; 0.2 percent substrate, 1 hour) [mM]	Concentration of acetic acid detected [1, 4] [mM]	optical selectivity of β-amino acid produced (ee) ([1]; JM109/pSFN—1VR) [% ee]	β-amino acid enantiomer detected in the reaction solution ([1]; JM109/pSFN—1VR)	optical selectivity of β-amino acid produced (ee) [2] [% ee]	β-amino acid enantiomer detected in the reaction solution [2]	Concentration of acetic acid detected ([2]; 0.2 percent substrate, 1 hour) [mM]	Concentration of acetic acid detected [2, 4] [mM]	Concentration of acetic acid detected ([3]; 0.2 percent substrate, 1 hour) [mM]	Concentration of acetic acid detected [3, 4] [mM]	optical selectivity of β-amino acid produced (ee) ([3]; JM109/ptrp4—3BR) [% ee]	β-amino acid enantiomer detected in the reaction solution ([3]; JM109/ptrp4—3BR)	acetic acid detected ([1]; JM109/pSFN—1VR 50 mU cell-free extract, 1 percent substrate, 1 hour at 37° C.) [mM]	acetic acid detected ([2]; JM109/pSFN—2BS 50 mU cell-free extract, 1 percent substrate, 1 hour at 37° C.) [mM]	acetic acid detected ([3]; JM109/ptrp4—3BR 50 mU cell-free extract, 1 percent substrate, 1 hour at 37° C.) [mM]	activity per mL of cell-free extract ([1]; JM109/pSFN—1VR, 0.2 percent substrate, 10 minutes at 37° C.) [U]	activity per mL of cell-free extract ([2]; JM109/pSFN—2BS, 0.2 percent substrate, 10 minutes at 37° C.) [U]	activity per mL of cell-free extract ([3]; JM109/ptrp4—3BR, 0.2 percent substrate, 10 minutes at 37° C.) [U]
CC(=O)NC(CC(=O)O)Cc1ccccc1 (racemic) [N-Ac-β-homoPhe, N-acetyl-(R,S)-β-homoPhe]	0.1	2.6	> 99	(S)-β-homoPhe was detected	> 99	(R)-β-homoPhe was detected	0.5	4.0	1.6	3.7	98	(S)-β-homoPhe was detected						
CC(=O)NC(CC(=O)O)c1cccnc1 (racemic) [N-acetyl-(R,S)-β-3-Pyr-Ala]													0.8	8.4	3.5			
CC(=O)NC(CC(=O)O)C(C)C (racemic) [N-Ac-β-Leu, N-acetyl-(R,S)-β-Leu]	0.0	1.0	> 99	(R)-β-Leu was detected	> 99	(S)-β-Leu was detected	1.6	6.2	0.2	5.6	> 99	(R)-β-Leu was detected						
CC(=O)NC(CC(=O)O)CC(C)C (racemic) [N-Ac-β-homoLeu, N-acetyl-(R,S)-β-homoLeu]	0.0	0.6	> 99	(S)-β-homoLeu was detected	> 99	(R)-β-homoLeu was detected	1.2	5.4	3.0	7.5	69	(S)-β-homoLeu was detected						
CC(=O)NC(CC(=O)O)c1ccccc1 (racemic) [N-Ac-β-Phe, N-acetyl-(R,S)-β-Phe]	5.2						5.3		5.0									
CC(=O)NC(CC(=O)O)c1ccc(F)cc1 (racemic) [N-Ac-β-4-F-Phe, N-acetyl-(R,S)-4-fluoro-β-Phe]	4.6	4.7	> 99	(R)-4-fluoro-β-Phe was detected	> 99	(S)-4-fluoro-β-Phe was detected	5.2	5.1	4.6	5.4	94	(R)-4-fluoro-β-Phe was detected						
CC(=O)NC(CC(=O)O)c1ccc(O)cc1 (racemic) [N-Ac-β-Tyr, N-acetyl-(R,S)-β-Tyr]	5.1	4.6	> 99	(R)-β-Tyr was detected	> 99	(S)-β-Tyr was detected	5.2	5.2	4.5	4.9	61	(R)-β-Tyr was detected						
CC(=O)NC(CC(=O)O)c1ccc2c(c1)OCO2 (racemic) [N-acetyl-(R,S)-3,4-(—O—CH2—O—)-β-phenylalanine]				(R)-3,4-(—O—CH2—O—)-β-phenylalanine was detected		(S)-3,4-(—O—CH2—O—)-β-phenylalanine was detected						(R)-3,4-(—O—CH2—O—)-β-phenylalanine was detected				27.8	3.9	0.2
CC(=O)NC(C)CC(=O)O (racemic) [N-Ac-β-Aba, N-acetyl-(R,S)-β-aminobutyric acid]	0.0	0.1					0.1	0.3	0.1	0.6								
